# Laboratory results: ChEMBL document CHEMBL1159284, “A Short Enantioselective Synthesis of a Biologically Active Compound from Persea americana” (J Nat Prod, 1995)
# Tests used:
# Mus musculus [1] = test: Toxicity in lactating mouse assessed as widespread mammary gland necrosis at 200 mg/kg; format: organism-based; design: dose 200 mg/kg; conditions: in vivo
# Mus musculus [2] = test: Toxicity in lactating mouse assessed as widespread mammary gland necrosis at 50 to 100 mg/kg; format: organism-based; design: dose 50-100 mg/kg; conditions: in vivo
SMILES,Activity (Mus musculus [1]),Activity (Mus musculus [2])
CCCCC/C=C\C/C=C\CCCCCCCC(=O)C[C@H](O)COC(C)=O,Not Active,
CCCCC/C=C\C/C=C\CCCCCCCC(=O)C[C@@H](O)COC(C)=O,,Active
